Laboratory results as given in PMC7146544, “Dual Plasmepsin-Targeting Antimalarial Agents Disrupt Multiple Stages of the Malaria Parasite Life Cycle” (Cell Host & Microbe, 2020).
Where two headings read alike, the source gives them in different places.

Tests used:
[1] = Pharmacokinetic attributes (no method given); conditions: in vivo
P. falciparum [2] = assay: P. falciparum asexual blood-stage growth inhibition (LDH or SYBR Green flow cytometry); type: cell-based, Plasmodium falciparum; conditions: Plasmodium falciparum, 3D7, 3D7 parasite line, asexual blood stage; read-out: EC50, inhibition of P. falciparum growth
Protocol: For High Throughput Screening (HTS) of compounds we used the lactate dehydrogenase (LDH) assay to detect parasitemia ([Makler et al., 1993], [Oduola et al., 1997]) formatted in a 384 well assay using an Echo555 (Labcyte). The P. falciparum assay was conducted with minor modifications ([Gamo et al., 2010]). Briefly, an inoculum of parasitized red blood cells at 0.7% parasitemia and 2% hematocrit in RPMI-1640, 5% AlbuMAX, 2% d-sucrose, 0.3% glutamine and 150 μM hypoxanthine was used for the assay. Assay plates (Greiner #781098, 384 well, white, tissue culture treated) were prepared by dispensing 1 μl of compound from master plates at 20 μM (10% DMSO stock) into 9ul pre-dispensed growth media in each well. The parasite inoculum (30 μl) was dispensed into plates containing compounds using a Multidrop Combi dispenser (Thermo Scientific). Final assay volume was 40 μl and final compound concentration was 500 nM. The positive growth control was 0.25% DMSO and the negative growth control was 100 nM chloroquine. Plates were incubated at 37 °C for 72 h in an atmosphere of […]. Following 72 h growth, plates were sealed with parafilm and frozen at −80 °C overnight. Plates were thawed at room temperature for at least 4 h prior to LDH activity being measured. 45 μl of fresh LDH reaction mix (174 mM sodium l-lactate, 214 μM 3-acetyl pyridine adenine dinucleotide (APAD), 270 μM Nitro Blue tetrazolium chloride (NBT), 4.35 U ml-1 diaphorase, 0.7% Tween 20, 100 mM Tris-HCl pH 7.5) was dispensed into each well using a Multidrop Combi dispenser. Plates were shaken to ensure mixing and absorbance at 650 nm was measured in an EnVision (PerkinElmer) plate reader after 30 min of incubation at room temperature. Data were normalized to percent growth inhibition using positive and negative controls and analyzed using Dotmatics 5.3 and Spotfire 7.11.1 (Tibco) software.
All wells were backfilled with DMSO to 45 nL such that this remained constant (0.1% DMSO). The positive growth control was 0.1% DMSO and the negative growth control was 100 nM chloroquine. Parasite inoculum (40 μl) was dispensed into plates containing compounds as described above. All other culture and lactate dehydrogenase (LDH) reaction methods are as described previously ([Makler et al., 1993], [Oduola et al., 1997]).
After 72 h incubation at 37°C each well was fixed at room temperature for 30 min with 50 μL of 0.25% glutaraldehyde (ProSciTech) diluted in PBS. Following centrifugation at 1200 rpm for 1 min, supernatants were discarded and parasites were stained with 50 μL of 5X SYBR Green (Invitrogen) diluted in PBS. 50,000 cells were counted by flow cytometry using a Cell Lab Quanta SC – MPL Flow Cytometer (Beckman Coulter) ([Bacon et al., 2007]). Growth was expressed as a percentage of the parasitemia obtained using a vehicle control. All samples were tested in triplicate. EC50 values were determined using GraphPad Prism.

P. knowlesi = P. knowlesi drug sensitivity assay; type: cell-based, Plasmodium knowlesi; conditions: 48 h, blood stage parasites, read-out: EC50, inhibition of P. knowlesi growth
Protocol: The drug sensitivity assays were performed in 96-well plates using 50 μL culture at 0.5% parasitemia and 2% hematocrit. The compounds were serially diluted in 1% DMSO. Parasite growth assays were performed for 48 h. Parasite cultures were then fixed with 50 μL 0.25% glutaraldehyde for 30 min at room temperature. The culture supernatants were removed and the cells were stained with 5% SYBR Green in the dark for 30 min. Parasitemia was defined by the proportion of Alexa 488-A positive cells in 50,000 recorded events using LSR II analyzer (BD). The percentage of parasite growth was normalized with the DMSO vehicle control group and the highest-dosage group, and plotted as a dose-response curve in Prism 7.

P. falciparum [3] = assay: P. falciparum humanized NOD-scid IL2R_null mouse model
Protocol: Compounds were tested in the murine P. falciparum SCID model ([Angulo-Barturen et al., 2008]). […] The mice were intravenously infected with 2 × 10^7 P. falciparum Pf3D7-infected erythrocytes (day 0) ([Angulo-Barturen et al., 2008]). On day 3 after infection, mice were randomly allocated to treatments that were administered once a day for 4 consecutive days (n = 3 mice) by oral gavage at 10 mL/kg. Parasitemia was measured by microscopy. Chimerism was monitored by flow cytometry using anti-murine erythrocyte TER119 monoclonal antibody (PharMingen, San Diego, CA) and SYTO-16 and then analyzed by flow cytometry in serial 2 μL blood samples taken every 24 h until assay completion.

P. berghei = assay: Merosome transfer from treated HepG2 cultures to mice; type: in vivo, Plasmodium berghei; conditions: HepG2 cultures treated with 1 nM, washed
Protocol: To infect cells, freshly isolated PbmCherryLuci salivary gland sporozoites were resuspended in complete medium and 10^4 sporozoites added to each well (MOI 0.34) before spinoculation at 500 x g for 3 min. Sporozoites were allowed to infect cells for 3 h before washing with complete medium. […] The compound containing medium was changed the next morning before 48 hpi to prevent removal of detached cells and merosomes in the supernatant at later time points ([Sturm et al., 2006]). To measure inhibition of parasitised cell detachment in the treated cultures, each well was imaged for mCherry at 20x magnification using an Opera Phenix High Content Screening System (PerkinElmer) at 48 hpi (live cell microscopy) and again at 65 hpi following fixation with 4% formalin in PBS, and the number of mCherry^+ parasites counted using the Columbus Image Data Storage and Analysis System (PerkinElmer). Cell detachment was calculated as the percent of parasites lost from the monolayer between 48 – 65 hpi. The culture supernatant containing merosomes and detached parasitised cells from each well was collected at 65 hpi, washed once in complete media by centrifugation at 500 x g for 3 min, then i.v. injected into individual male Swiss mice. Daily Giemsa stained thin blood smears were monitored for patent blood infection as described previously.

Row | SMILES | pharmacokinetic attributes [1] | EC50 (P. falciparum [2]) [nM] | EC50 (P. knowlesi; Plasmodium knowlesi) [nM] | EC50 (P. knowlesi) [nM] | day by which mice were cleared of parasitemia (P. falciparum [3]; WM382 3 mpk oral q.d. 4 days from day 3) [days] | day by which mice were cleared of parasitemia (P. falciparum [3]; WM382 10 mpk oral q.d. 4 days from day 3) [days] | day by which mice were cleared of parasitemia (P. falciparum [3]; WM382 30 mpk oral q.d. 4 days from day 3) [days] | efficacy against P. falciparum including parasitemia clearance rate, compared with chloroquine (P. falciparum [3]; in vivo and in vitro) | blood infection of naive mice after i.v. injection of 65 hpi supernatants (P. berghei)
1 | CC(NC(=O)c1cccc(C(c2ccccc2)N2C(=N)NC(C)(C(C)C)CC2=O)c1)c1ccccc1 (racemic) [WM4] | did not have desirable pharmacokinetic attributes |  |  |  |  |  |  |  | 
2 | CCC1(CC)CC(=O)N([C@@H]2CCOc3ccc(C(=O)N[C@H]4CC(C)(C)Oc5ccccc54)cc32)C(=N)N1 [WM382] |  | 0.6 | 0.2 | 0.18 ± 0.06 | ≤ 7 | ≤ 7 | ≤ 6 | at least equivalent to chloroquine | Blood infection was initiated in mice
